Source: PubChem BioAssay (NCI)
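Cultured in 96-well plates, cells were exposed to test compound for 48 hours across five concentrations. TGI marks complete inhibition of growth.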

Columns and labels:
Assay in all cases: growth of human tumour cells (NCI), 48 h
[1] = tested on: 786-0 renal
[2] = tested on: A549 NSCLC
[3] = tested on: ACHN renal
[4] = tested on: CCRF-CEM leukemia
[5] = tested on: COLO 205 colon
[6] = tested on: DLD-1 colon
[7] = tested on: DMS 114 small cell lung
[8] = tested on: DMS 273 small cell lung
[9] = tested on: EKVX NSCLC
[10] = tested on: HCC-2998 colon
[11] = tested on: HCT-116 colon
[12] = tested on: HCT-15 colon
[13] = tested on: HL-60(TB) leukemia
[14] = tested on: HOP-18 NSCLC
[15] = tested on: HOP-62 NSCLC
[16] = tested on: IGROV1 ovarian
[17] = tested on: K-562 leukemia
[18] = tested on: KM12 colon
[19] = tested on: KM20L2 colon
[20] = tested on: LOX IMVI melanoma
[21] = tested on: LXFL 529 NSCLC
[22] = tested on: M14 melanoma
[23] = tested on: M19-MEL melanoma
[24] = tested on: MALME-3M melanoma
[25] = tested on: MOLT-4 leukemia
[26] = tested on: NCI-H23 lung
[27] = tested on: NCI-H460 lung
[28] = tested on: NCI-H522 lung
[29] = tested on: OVCAR-3 ovarian
[30] = tested on: OVCAR-5 ovarian
[31] = tested on: OVCAR-8 ovarian
[32] = tested on: RPMI-8226 leukemia
[33] = tested on: RXF 393 renal
[34] = tested on: SF-268 CNS
[35] = tested on: SF-295 CNS
[36] = tested on: SF-539 CNS
[37] = tested on: SK-MEL-2 melanoma
[38] = tested on: SK-MEL-28 melanoma
[39] = tested on: SK-MEL-5 melanoma
[40] = tested on: SK-OV-3 ovarian
[41] = tested on: SN12C renal
[42] = tested on: SNB-19 CNS
[43] = tested on: SR leukemia
[44] = tested on: SW-620 colon
[45] = tested on: TK-10 renal
[46] = tested on: U251 CNS
[47] = tested on: UACC-257 melanoma
[48] = tested on: UO-31 renal
[49] = tested on: A498 renal
[50] = tested on: BT-549 breast
[51] = tested on: CAKI-1 renal
[52] = tested on: DU-145 prostate
[53] = tested on: HOP-92 NSCLC
[54] = tested on: HS 578T breast
[55] = tested on: HT29 colon
[56] = tested on: MCF7 breast
[57] = tested on: MDA-MB-231 breast
[58] = tested on: MDA-MB-435
[59] = tested on: MDA-N
[60] = tested on: NCI-H226 lung
[61] = tested on: NCI/ADR-RES ovarian
[62] = tested on: OVCAR-4 ovarian
[63] = tested on: PC-3 prostate
[64] = tested on: SNB-75 CNS
[65] = tested on: SNB-78 CNS
[66] = tested on: T-47D breast
[67] = tested on: UACC-62 melanoma
[68] = tested on: XF 498 CNS

Cc1ccc(S(=O)(=O)OCOS(=O)(=O)c2ccc(C)cc2)cc1
TGI [1]: > 100 µM | TGI [2]: > 100 µM | TGI [3]: > 100 µM | TGI [4]: > 100 µM | TGI [5]: > 100 µM | TGI [6]: > 100 µM | TGI [7]: > 100 µM | TGI [8]: > 100 µM | TGI [9]: > 100 µM | TGI [10]: > 100 µM | TGI [11]: > 100 µM | TGI [12]: > 100 µM | TGI [13]: > 100 µM | TGI [14]: > 100 µM | TGI [15]: > 100 µM | TGI [16]: > 100 µM | TGI [17]: > 100 µM | TGI [18]: > 100 µM | TGI [19]: > 100 µM | TGI [20]: > 100 µM | TGI [21]: > 100 µM | TGI [22]: > 100 µM | TGI [23]: > 100 µM | TGI [24]: > 100 µM | TGI [25]: > 100 µM | TGI [26]: > 100 µM | TGI [27]: > 100 µM | TGI [28]: > 100 µM | TGI [29]: > 100 µM | TGI [30]: > 100 µM | TGI [31]: > 100 µM | TGI [32]: > 100 µM | TGI [33]: > 100 µM | TGI [34]: > 100 µM | TGI [35]: > 100 µM | TGI [36]: > 100 µM | TGI [37]: > 100 µM | TGI [38]: > 100 µM | TGI [39]: > 100 µM | TGI [40]: > 100 µM | TGI [41]: > 100 µM | TGI [42]: > 100 µM | TGI [43]: > 100 µM | TGI [44]: > 100 µM | TGI [45]: > 100 µM | TGI [46]: > 100 µM | TGI [47]: > 100 µM | TGI [48]: > 100 µM

C/C=C(\N=C=S)C(=O)OC1C(COC(C)=O)OC([C@]2(O)CC(=O)C(=N)C(C(=O)O)=C2O)C(O)C1OC1CC(OC)C(O)([C@@H](C)OC(=O)[C@@H](C)CC)C(C)O1 (stereo partly specified)
TGI [1]: 26.6 µM | TGI [49]: 62.5 µM | TGI [2]: > 80.6 µM | TGI [3]: 33.1 µM | TGI [50]: 16.5 µM | TGI [51]: 35 µM | TGI [4]: 7.45 µM | TGI [5]: 13.3 µM | TGI [6]: 24.9 µM | TGI [7]: 14.9 µM | TGI [8]: 32.1 µM | TGI [52]: 39.2 µM | TGI [9]: 30.3 µM | TGI [10]: 40.1 µM | TGI [11]: 21.9 µM | TGI [12]: 37.1 µM | TGI [13]: 5.34 µM | TGI [14]: 30.4 µM | TGI [15]: 45.7 µM | TGI [53]: 9.77 µM | TGI [54]: > 96.1 µM | TGI [55]: 23.6 µM | TGI [16]: 36 µM | TGI [17]: 14.6 µM | TGI [18]: 19.9 µM | TGI [19]: 18.5 µM | TGI [20]: 17.2 µM | TGI [21]: 4.16 µM | TGI [22]: 30.9 µM | TGI [23]: 6.24 µM | TGI [24]: 22.8 µM | TGI [56]: 38.4 µM | TGI [57]: 51.7 µM | TGI [58]: 35.7 µM | TGI [59]: 26.5 µM | TGI [25]: 14 µM | TGI [60]: 39.5 µM | TGI [26]: 23.9 µM | TGI [27]: 47.5 µM | TGI [28]: 5.32 µM | TGI [61]: > 100 µM | TGI [29]: 35.7 µM | TGI [62]: 19.4 µM | TGI [30]: 40.4 µM | TGI [31]: 15 µM | TGI [63]: 32.7 µM | TGI [32]: 7.19 µM | TGI [33]: 15.5 µM | TGI [34]: 23.2 µM | TGI [35]: 37.2 µM | TGI [36]: 17.5 µM | TGI [37]: 20 µM | TGI [38]: 18.5 µM | TGI [39]: 28.6 µM | TGI [40]: 52 µM | TGI [41]: 40 µM | TGI [42]: 31.5 µM | TGI [64]: 34.8 µM | TGI [65]: 26.4 µM | TGI [43]: 23.2 µM | TGI [44]: 8.33 µM | TGI [66]: 42.1 µM | TGI [45]: 31.4 µM | TGI [46]: 21.8 µM | TGI [47]: 29.9 µM | TGI [67]: 10.3 µM | TGI [48]: 33.3 µM | TGI [68]: 5.92 µM
